Data as given in US5906922A, “Delivery of nucleic acids” (Commonwealth Scientific and Industrial Research Organisation, priority 1994, dated 1999).
Where a SMILES comes first, the peptide text is derived from it. The star is where a group is joined. NHC(CH2OLauroyl)3 = CCCCCCCCCCCC(=O)OCC(COC(=O)CCCCCCCCCCC)(COC(=O)CCCCCCCCCCC)N*

Key:
Cos 1 cells [1] = assay type: cell-based, African Green Monkey
Description: Relative levels of cytotoxicity caused by the different agents were compared during the experiment using the dye "Alamar Blue" (Alamar, Sacramento Calif.).
(§1) For experiment "c", a plasmid pPGKlaczNLS encoding β-galactosidase under the control of the mouse PGK promoter (kind gift from G.Hannan) or pSVGAL which utilises the SV40 early promoter (Sleigh, M. J. and Lockett, T. J. (1985). EMBO J. 4:3831-3837),was transfected. This experiment and assay were modified from Feigner et al J. Biol Chem. 269(4) 2550-2561 1994. This protocol allows the simultaneous assessment of 72 different combinations and concentrations of DNA and test agent in a microtitre tray. […] Cytotoxicity was assessed using alamar blue, and a sample graph is shown for experiment a.
(§2) The ratio of [lipid]/[DNA] at which that maximum was achieved is shown. Experiments shown were carried out in Cos 1 cells, as described above. MTS OD is a measure of relative viabilility of the cells exposed to the different agents, a higher value indicates greater cell viability. * These points were taken from a separate experiment and some slight variation between absolute numbers should be expected between experiments.
(§3) The ratio of [lipid]/[DNA] at which that maximum was achieved is shown in brackets for the two different cell types in the following order; (Cos 1) (CHO). Experiments shown were carried out in Cos 1 cells, as described above. Viability was measured with the dye alamar blue . # Denotes compounds tested in a separate experiment. * Viability in this experiment was determined with MTS. OD is a measure of relative viability of the cells exposed to the different agents, and as with alamar blue, a higher value indicates greater cell viability.

cells = assay: β-gal reporter transfection, "y" linker non-standard amino acids; assay type: cell-based; conditions: K3 "y" TL3 compounds
Experimental: Peptide/fatty acyl conjugates were synthesized using the non-standard amino acids amino butyric (C3), amino caproic (C5) and amino caprylic (C7) acids as the linker groups, a tri-lysine nucleic acid binding domain and laurate for the three fatty acyl groups. In these new conjugates the DNA binding and tris/fatty acyl moieties were separated by an extra 3, 5 and 7 carbon bond lengths respectively when compared with the prototype molecule. These compounds were then tested in the standard manner described above to determine their relative capacity to transfect cells.
K3 "y" TL3 compounds, where y=C3, C5, C7, A, L, G were compared for transfection efficiency to each other and the commercial agent Lipofectamine using the standard β-gal reporter gene system described above.

Cos 1 cells [2] = assay: β-gal microtitre plate transfection assay, Cos 1; assay type: cell-based, African Green Monkey; conditions: for relative transfection level (A linker compound as reference): "y" linker experiment c, Cos 1, trilysine trilaurate
Description: as §1
Compounds were tested for their ability to transfect either the CAT or β-gal gene carried on plasmids, and assayed as described above.
as §2
Each of these compounds was tested for transfection ability and cytotoxicity on standard cell lines using standard conditions as described above.
as §3

Cos 1 cells [3] = assay: Cellular uptake and distribution of fluorescein conjugates (confocal microscopy); assay type: cell-based, African Green Monkey; conditions: for cell staining after treatment: cells fixed fifteen minutes after treatment; for persistence of staining: conjugate washed off after 2 hours, cells grown 24 hours; for distribution in live, unfixed cells: 40× objective
Experimental: In order to assess the ability to deliver compounds into cells, preliminary experiments were conducted with fluorescein alanine ethanolamine palmitate (FLAEP) and fluorescein alanine tris tripalmitate (FLATP3).
After the incubation period as specified in the experiment, up to 24 hours exposure, the cells were washed and fixed in formaldehyde for 20 minutes. Cells were then observed under laser excitation in a Bio Rad MRC 500 confocal microscope.

Cos 1 cells [4] = assay type: cell-based, African Green Monkey; remark: listed apart in the source
Experimental: Relative levels of cytotoxicity were also assayed in subsequent experiments using the dye MTS, marketed as Cell titre 96 Aqueous (Promega).
as §2, §3

Cos 1 cells [5] = assay: Transfection of pSVLCAT, CAT assay, Cos 1; assay type: cell-based, African Green Monkey
Experimental: To test the transfection properties of the lead compound K3ATP3 (VerafectinA3), whole uncut plasmid carrying the gene encoding CAT (chloramphenicol acetyl transferase) under the control of the SV40 late promoter, pSVLCAT (Cameron, F. H. and Jennings, P. A. (1989) PNAS 86, 9139-9143) was mixed with the test agent and put on Cos 1 cells under various conditions. After 48 hours of culture the level of secreted CAT was assayed from the culture medium.
Solution I: 1 μg Plasmid DNA in 500 μl Dulbeccos Modified Eagles Medium (DME)
Solution II: 0-20 μl VerafectinA3 (2.5 mg/ml 25% DMSO) in 500 μl DME, Vortex
Combine solution I and II, vortex briefly and incubate at room temperature for 10 min.
Add mix to washed cells in 60 mm tissue culture dishes (seeded 0.5×10^6 /dish previous day) for 6 hrs at 37° C., 5% C02. Add 2 ml DME+10% FCS for remainder of 48 hrs. Assay CAT levels in tissue culture medium (Sleigh, M. J. (1986) Anal. Biochem. 156.251-256).
a--Compare VerafectinA3 dissolved in DMSO or ethanol.
b--Compare VerafectinA3 on cells 6 hrs to overnight. VerafectinA3 at 10 mg/ml in 100% solvent was diluted to 2.5 mg/ml with water.
Transfection was carried out as for experiment 1. VerafectinA3 was left in contact with the cells for varying times.
Protocol was the same for the Verafectins as described above. Lipofectamine protocol was according to manufacturers instructions. Cos 1 cells were seeded at 5×10^5 /60 mm dish and adhered overnight in DME with 10% FCS.
Solution A: 0.5 μg pSVLCAT/60 mm dish.
Solution B: Lipofectamine 10 and 15 μl 2 mg/ml (mixed formulation 3:1 with DOPE).
OR; VerafectinA3 and VerafectinG2 20 μl 2 mM (2.8 and 2.3 mg/ml respectively) stock.
OR; VerafectinG2 was also tested with an equimolar amount of DOPE. VerafectinG2 and DOPE were mixed in DDME and vortexed for 30 seconds before use. Solutions A and B were combined before overlaying on washed cells.
The serum free incubation period in the presence of test agents and DNA was 6 hrs, then 1 ml DME+10% FCS was added. At 24 hours medium was changed to 2 ml fresh DME+10% FCS until harvest at 48 hrs.
Cell lines Cos 1 or CHO were transfected with 0.5 μg of pSVLCAT or 2 μg of pPGKlacZ plasmid using a range of concentrations of each transfection compound. The optimal concentration of compound, that is the concentration giving the highest level of CAT at 48 hours or the greatest percentage of lac z (β-galactosidase) staining cells at 24 hours was used to collate data for Table 1. As all compounds were not tested in a single experiment, absolute figures indicating transfection were not used. Rather, symbols are used to indicate the transfection efficiency relative to Lipofectamine (BRL), which was included as a control in all experiments. Table 1 thus indicates the relative efficiencies of a number of compounds in mediating the transfection of at least one cell type.
All test lipopeptide reagents were originally dissolved at 10 mM in 75% DMSO, and subsequently diluted with water to make a 2 mM stock stored at 4° C. Volumes of 2 mM stock lipopeptide ranging from 2 μl to 15 μl were diluted in 500 μl of DDME. 1 μg of plasmid pSVLCAT was separately diluted in 500 μl of DDME. Solutions were combined for 10-20 min at room temperature before adding to 500 μl of DDME in 60 mm dishes of subconfluent CHO cells (2×10^5 day-1) or Cos 1 cells (5×10^5 day-1); washed free of serum with DDME.
Cells were incubated for 6 hrs under standard conditions of 37° C. and 5% CO2 for 6 hours. 1.5 ml of DME/Hams+10% FCS (CHO) or DME+10% FCS (Cos 1) was added to the cells for overnight incubation. Fresh DME/Hams+10% FCS or DME+10% FCS was used to replace the medium for a further 24 hours prior to harvest. Cell lysates were prepared and assayed for CAT activity as described above. For Cos 1 cells, culture supernatants were assayed for CAT activity.
For transfection of pSVLCAT and subsequent assay of CAT enzyme, experiments "a" and "b" were carried out as described above.

CCCCCCCCCCCCCCCC(=O)OCC(CO)(COC(=O)CCCCCCCCCCCCCCC)NC(=O)[C@H](Cc1ccccc1)NC(=O)[C@H](CCCCN)NC(=O)[C@@H](N)CCCCN [K2FTP2]
toxicity, linkers K, F and L compared (Cos 1 cells [1]): somewhat higher than for the K compound

CCCCCCCCCCCC(=O)OCC(COC(=O)CCCCCCCCCCC)(COC(=O)CCCCCCCCCCC)NC(=O)[C@H](CC(C)C)NC(=O)[C@H](CCCCN)NC(=O)[C@H](CCCCN)NC(=O)[C@@H](N)CCCCN [K3LTL3] (H-KKKL-{NHC(CH2OLauroyl)3})
transfection efficiency compared to Lipofectamine (cells): more efficient at transfection than Lipofectamine
relative transfection level (A linker compound as reference) (Cos 1 cells [2]): 57%

O=C1OC2(c3ccc(O)cc3Oc3cc(O)ccc32)c2ccccc21 [fluorescein, reference compound]
cell staining after treatment (Cos 1 cells [3]; 10 μM): only a very weak generalised fluorescence over the whole cell

fluorescein alanine ethanolamine palmitate [FLAEP]
cell staining after treatment (Cos 1 cells [3]; 10 μM): intense cytoplasmic staining
persistence of staining (Cos 1 cells [3]): This same persistence of staining was not observed
distribution in live, unfixed cells (Cos 1 cells [3]): appeared to enter the cell readily, but was concentrated particularly in the nucleus

CCCCCCCCCCCC(=O)OCC(COC(=O)CCCCCCCCCCC)(COC(=O)CCCCCCCCCCC)NC(=O)CCCCCNC(=O)[C@H](CCCCN)NC(=O)[C@H](CCCCN)NC(=O)[C@@H](N)CCCCN [K3C5TL3]
transfection efficiency compared to Lipofectamine (cells): more efficient at transfection than Lipofectamine
transfection efficiency compared to standard single amino acid linker (cells): dramatically more efficient than compounds using the standard single amino acid linker

CCCCCCCCCCCC(=O)OCC(COC(=O)CCCCCCCCCCC)(COC(=O)CCCCCCCCCCC)NC(=O)CCCNC(=O)[C@H](CCCCN)NC(=O)[C@H](CCCCN)NC(=O)[C@@H](N)CCCCN [K3C3TL3]
transfection efficiency compared to Lipofectamine (cells): more efficient at transfection than Lipofectamine
transfection efficiency compared to standard single amino acid linker (cells): dramatically more efficient than compounds using the standard single amino acid linker

CCCCCCCCCCCCCCCC(=O)OCC(COC(=O)CCCCCCCCCCCCCCC)(COC(=O)CCCCCCCCCCCCCCC)NC(=O)[C@H](CCCCN)NC(=O)[C@H](CCCCN)NC(=O)[C@@H](N)CCCCN [K2KTP3]
cytotoxicity, dipalmitate versus tripalmitate (Cos 1 cells [1]): increase in cytotoxicity

CCCCCCCCCCCCCC(=O)OCC(COC(=O)CCCCCCCCCCCCC)(COC(=O)CCCCCCCCCCCCC)NC(=O)[C@H](C)NC(=O)[C@H](CCCCN)NC(=O)[C@H](CCCCN)NC(=O)[C@@H](N)CCCCN [K3ATM3]
ratio [lipid]/[DNA] at which maximum was achieved (Cos 1 cells [2]; Table 2, Cos 1): 1.39
units β-gal (Cos 1 cells [2]; Table 2, Cos 1, highest reading of 72 conditions): 2.86 × 10^-4 units
ratio [lipid]/[DNA] at which maximum was achieved (Cos 1 cells [2]; Table 3, Cos 1): 1.39
β-gal (Cos 1) (Cos 1 cells [2]; Table 3, Cos 1, # tested in a separate experiment): 2.86 × 10^-4
MTS OD490-655 (Cos 1 cells [4]): 1.22
Viability (Cos 1) (Cos 1 cells [4]): 1.22

CCCCCCCCCCCCCCCC(=O)OCC(CO)(COC(=O)CCCCCCCCCCCCCCC)NC(=O)[C@H](CC(C)C)NC(=O)[C@H](CCCCN)NC(=O)[C@@H](N)CCCCN [K2LTP2]
transfection, linkers K, F and L compared (Cos 1 cells [5]; "y" linker experiment a, Cos 1, dilysine dipalmitate): marginally superior results to F, but was substantially more effective than the K compound
transfection, linkers A and L compared (Cos 1 cells [5]; "y" linker experiment b, Cos 1): very similar activities
toxicity, linkers K, F and L compared (Cos 1 cells [1]): somewhat higher than for the K compound

CCCCCCCCCCCC(=O)OCC(COC(=O)CCCCCCCCCCC)(COC(=O)CCCCCCCCCCC)NC(=O)CNC(=O)[C@H](CCCCN)NC(=O)[C@H](CCCCN)NC(=O)[C@@H](N)CCCCN [K3GTL3] (H-KKKG-{NHC(CH2OLauroyl)3})
transfection efficiency compared to Lipofectamine (cells): All of the compounds except K3GTL3 were found to be more efficient at transfection than Lipofectamine
relative transfection level (A linker compound as reference) (Cos 1 cells [2]): 12%

fluorescein alanine Tris tripalmitate [FLATP3]
cell staining after treatment (Cos 1 cells [3]; 10 μM): intense cytoplasmic staining
localisation of conjugate (Cos 1 cells [3]; 10 μM, fixed cells): appeared to associate preferentially with the cellular and nuclear membranes
persistence of staining (Cos 1 cells [3]): a pattern that persisted in cells allowed to grow for 24 hours
distribution in live, unfixed cells (Cos 1 cells [3]): exhibited a similar pattern whether the cells were live or fixed
